Experimental data published in BindingDB's records for doi:10.1016/j.bmcl.2009.03.008 (Roche R & D Center(China), 2009).
pEC50, pIC50: −log10 of the molar value.

Biological target: T1, Bile acid receptor (Homo sapiens, UniProt Q96RI1)
T1 sequence (Q96RI1 whole entry): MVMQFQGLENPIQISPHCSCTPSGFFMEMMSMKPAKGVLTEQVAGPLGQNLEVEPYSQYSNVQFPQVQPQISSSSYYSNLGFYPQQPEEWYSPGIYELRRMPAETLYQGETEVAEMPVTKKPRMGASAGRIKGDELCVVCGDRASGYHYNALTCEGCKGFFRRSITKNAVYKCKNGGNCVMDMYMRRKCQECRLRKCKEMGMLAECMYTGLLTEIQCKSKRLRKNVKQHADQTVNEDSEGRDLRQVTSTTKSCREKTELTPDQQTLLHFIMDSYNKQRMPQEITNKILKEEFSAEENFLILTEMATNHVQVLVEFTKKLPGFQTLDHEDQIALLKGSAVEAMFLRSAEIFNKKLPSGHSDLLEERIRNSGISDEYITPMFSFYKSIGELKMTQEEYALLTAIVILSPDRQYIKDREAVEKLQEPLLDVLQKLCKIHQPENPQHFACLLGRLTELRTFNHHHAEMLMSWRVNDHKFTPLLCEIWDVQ
Assay: Scintillation Proximity Assay
Settings: pH 8; 22 °C
Method: Binding affinity (IC50) was evaluated using scintillation proximity assay with radiolabeled ligand and biotinylated receptor. Because the scintillant is contained within the SPA bead, only radiolabel that is attached to the bead is detected. The receptor-ligand complex is bound to the bead through interaction between the biotinylated receptor and the streptavidin moiety located on the surface of the bead.

SMILES	pEC50	pIC50
Cc1cc(OCc2c(-c3ccn(C)c(=O)c3Cl)noc2C(C)Cl)ccc1-c1ccc2c(C(=O)O)cn(C)c2c1 (centres undefined) [3-aryl isoxazole analog, 7d]	5.15	5.13
Cc1cc(OCc2c(-c3cc[nH]c(=O)c3Cl)noc2C(C)Cl)ccc1-c1ccc2c(C(=O)O)cn(C)c2c1 (centres undefined) [3-aryl isoxazole analog, 7c]	–	5.96
Cc1cc(OCc2c(-c3[nH]c(=O)ccc3Cl)noc2C(C)Cl)ccc1-c1ccc2c(C(=O)O)cn(C)c2c1 (centres undefined) [3-aryl isoxazole analog, 7h]	–	5.29
Cc1cc(OCc2c(-c3c(Cl)ccc(=O)n3C)noc2C(C)Cl)ccc1-c1ccc2c(C(=O)O)cn(C)c2c1 (centres undefined) [3-aryl isoxazole analog, 7f]	–	6.06
Cc1cc(OCc2c(-c3c(Cl)cn(C)c(=O)c3Cl)noc2C(C)Cl)ccc1-c1ccc2c(C(=O)O)cn(C)c2c1 (centres undefined) [3-aryl isoxazole analog, 7e]	–	5.38

Stronger by pIC50, values ahead:

pEC50	pIC50	SMILES
5.70	6.12	COc1ccc(Cl)c(-c2noc(C(C)Cl)c2COc2ccc(-c3ccc4c(C(=O)O)cn(C)c4c3)c(C)c2)n1 (centres undefined) [3-aryl isoxazole analog, 7g]
–	7.35	Cc1cc(OCc2c(-c3c(Cl)c[n+]([O-])cc3Cl)noc2C(C)Cl)ccc1-c1ccc2c(C(=O)O)cn(C)c2c1 (centres undefined) [3-aryl isoxazole analog, 7b]
